Measured values as given in patent US20100029654A1, “CARDIOVASCULAR COMPOSITIONS AND USE OF THE SAME FOR THE TREATMENT OF ALZHEIMER'S DISEASE” (MOUNT SINAI SCHOOL OF MEDICINE, priority 2006, published 2010).
pEC50: −log10 of the molar value. Entries after “also recorded” stand apart in the source; their conditions may differ. Like-named read-outs stand apart in the source and are kept apart here.

Key:
Aβ1-40 = Aβ1-40 content in conditioned medium of primary cortico-hippocampal neuron cultures from Tg2576 mice (ELISA; primary and secondary dose-response screening); format: cell-based, mouse; details: for Ab1-40 (% of ctl): drug 100 μM; for pEC50: read-out: EC50 (molar) Aβ1-40
How it was run: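 Primary cortico-hippocampal neurons from embryonic Tg2576 mice were plated at 1.0×10^5 cells per well on poly-D-lysine-coated 96-well plates in Neurobasal with 2% B27, 0.5 mM L-glutamine and 1% penicillin-streptomycin. Cultures received drug in 1% DMSO, and Aβ1-40 in the conditioned medium was measured by BioSource ELISA 24 hours after treatment, relative to vehicle controls.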

Tg2576 mice [1] = test: tolerability: body weight, fluid consumption, glucose tolerance
Tg2576 mice [2] = test: blood pressure (systolic, diastolic, MAP) by tail-cuff; format: in vivo, mouse
Experimental: FIG. 1 Tg2576 mice are characterized by normal blood pressure under basal conditions. Baseline measurements of systolic, diastolic blood pressure, and mean arteriole blood pressure (MAP) in ˜11 month old female Tg2576 mice. Strain-, age-, gender-matched WT mice were measured using a commercial blood pressure analysis system designed specifically for small rodents (Hatteras Instruments, NC). Following manufacturer's instruction, mice were temporarily immobilized in a restraining chamber and an inflated tail-cuff wrapped around the tail was used to measure the systolic pressure, diastolic pressure, and MAP. Each blood pressure determination was calculated as the mean of 10 individual measurements per animal (n=6-10 group).
FIG. 6A-C show body weight of mice in response to ˜3 weeks of treatment. […] FIG. 6D-F show the assessment of systolic, diastolic, and MAP blood pressure in Tg2576 mice in response to drug doses below or within the range of those prescribed in hypertension. Blood pressure measurements were conducted using a commercial blood pressure analysis system designed specifically for small rodents (Hatteras Instruments, NC). Following manufacturer's instruction, mice were temporarily immobilized in a restraining chamber and an inflated tail-cuff wrapped around the tail was used to measure pressures. Each blood pressure determination was calculated as the mean of 10 individual measurements per animal. In A-F, values represent mean±SEM values, n=3-5 mice per group. 2-tailed t-test: *P<0.05.
Assessment of blood pressure and glucose utilization. Mouse blood pressure was routinely recorded using a commercial blood pressure analysis system designed specifically for small rodents (Hatteras Instruments, NC). […] Briefly, mice were given a single dose of glucose post-prandially (i.p. 2 g/kg body weight). Blood was collected from the tail-vein periodically over a 2-hour period. Blood glycemic content was assessed using the OneTouch LifeScan System, (LifeScan, Milpitas, Calif.) following the manufacturer's instruction.

[3] = valsartan 10 or 40 mg/kg/day in drinking water, chronic

With “N-(1-oxopentyl)-N-[[2-(1H-tetrazol-5-yl) [1,1-biphenyl]-4-yl]methyl]-L-valine [Valsartan]” the “Ab1-40 (% of ctl)” value (Aβ1-40; Primary Screening, table sorted by Aβ1-40) was 51.6 % of ctl, the EC50 (Aβ1-40; Table IV, dose-response 0.01-100 μM, read-out: EC50 (M): Ab-lowering activity Abeta1-40) was 1.44e-05 M and the pEC50 (Aβ1-40; conditioned medium of primary cortico-hippocampal neuron cultures from Tg2576 embryos, 24 hours after treatment, relative to vehicle (1% DMSO) control) was 4.84. For the same substance, the “reduced Aβ1-40” value (Aβ1-40; primary screening, <85% of ctl) was “reduced Aβ1-40”, the “Ab1-40 (% of ctl)” value (Aβ1-40; primary screening, Tg2576 neuron cultures, table sorted by Aβ1-42) was 51.6 % of ctl and the pEC50 (Aβ1-40; secondary dose-response screening 0.01-100 μM, 24 hours) was 4.84. For the same substance, the body weight (Tg2576 mice [1]; [3]) was “no detectable changes in body weight; also recorded: did not significantly influence animal body weight”, the fluid intake (Tg2576 mice [1]; [3]) was “did not significantly influence the amount of fluid intake” and the glucose-tolerance responses (Tg2576 mice [1]; valsartan 10 or 40 mg/kg/day, ~5 months) was “did not significantly influence”. The “systolic, diastolic, MAP blood pressure” value (Tg2576 mice [2]; WT mice, valsartan) was “no detectable changes in systolic, diastolic, or MAP” and the “systolic, diastolic, MAP blood pressure” value (Tg2576 mice [2]; normotensive Tg2576 mice, valsartan 10 or 40 mg/kg/day, chronic) was “did not significantly influence systolic, diastolic, or MAP; also recorded: did not influence systolic, diastolic, and MAP blood pressure; also recorded: failed to produce a statistically significant change”.
